What was measured:
LPS-induced septic mice [1] = experiment: Treadmill vitality test of LPS-induced septic mice; type: in vivo, mouse; settings: LPS-treated mice
Excerpt: To further assess the protective effect of CV122 in LPS‐induced septic mice, we assessed the vitality of the mice with or without CV122 treatment by treadmill (Figure 2I).

LPS-induced septic mice [2] = settings: mouse, in vivo
[3] = tested on: M1 macrophages (F4/80+CD86+); experiment: Flow cytometry of M1 macrophages in organs of LPS-induced septic mice; type: in vivo, mouse; settings: 12 h after LPS 40 mg/kg i.p.
Method: (§1) Each group of mice was euthanized 24 h after LPS injection, spleens were harvested, red blood cells were lysed to detect splenocyte apoptosis, and the ratio of CD3^+CD4^+ T cells, CD3^+CD8^+ T cells, CD3^−CD19^+ B cells in spleen cells and lymph nodes quantified. Antibodies were: FITC‐Annexin V and PI; APC‐CD3, FITC‐CD4, PE‐CD8a, and PE‐CD19. Each group of mice was euthanized 12 h after LPS injection, Lung, kidney, and spleens were harvested, red blood cells were lysed to detect the ratio of macrophages in multiple organs, Antibodies were: FITC anti‐mouse F4/80; APC anti‐mouse CD86. Flow cytometry was used to quantify the adhesion molecules ICAM‐1 and VCAM‐1 on the surface of RAW264.7 cells and HUVECs. CV122 (50 µM) was incubated with the cells for 3 h, LPS (5 µg mL^−1) and TNF‐α (20 ng mL^−1) were used to stimulate the cells for 1 h, and the cells were collected. FITC anti‐mouse CD54 antibody and AF647 anti‐mouse CD106 antibody were incubated for 30 min at room temperature in the dark, PBS was added at 1000 rpm, and the cells were centrifuged for 7 min. A 200‐mesh copper mesh was used to filter the cells into a flow cytometer, and a flow cytometer (BD Biosciences) was used for detection.
Figure S6. M1 macrophages in multiple organs of LPS-induced septic mice. […] All results are expressed as mean ± SD (n = 3), *p < 0.05,**p < 0.01, ***p < 0.001, ****p < 0.0001; ns, not significant. […]

[4] = tested on: splenocytes and lymph node cells; experiment: Flow cytometry of splenocyte apoptosis and T/B cells in LPS-induced septic mice; type: in vivo, mouse; settings: 24 h after LPS
Method: as §1

HUVECs [5] = experiment: Cell surface glycocalyx of TNF-α-stimulated HUVECs (WGA-FITC, atomic force microscopy); type: cell-based, human
Method: (§2) Lungs were harvested from LPS‐induced and CLP‐induced sepsis model mice, and frozen sections were prepared. HUVECs and RAW264.7 macrophages were incubated with CV122 for 3 h, and TNF‐α (20 ng mL^−1) and LPS (5 µg mL^−1) were used to stimulate cells for 1 h. Lung tissue, HUVECs, and RAW264.7 macrophages were fixed with 4% paraformaldehyde for 10 min before permeabilization with 0.5% Triton X‐100 for 10 min. The membrane was sealed with 4% skimmed milk powder and incubated at room temperature for 50 min. Primary antibodies were rabbit anti‐heparanase polyclonal antibodies overnight at 4 °C. The diluent of the secondary antibody FITC‐WGA‐lectin was kept at room temperature and protected from light for 1 h. Nuclei were stained with DAPI. After 120 s, images were acquired with a confocal microscope (LSM 800, Zeiss, Germany).
(§3) HUVECs and RAW264.7 cells in the logarithmic growth phase were digested, centrifuged, and then plated in a six‐well plate at a density of 1 × 10[5] cells per well. CV122 was incubated for 3 h, and cells were stimulated with LPS (5 µg mL^−1) and TNF‐α (20 ng mL^−1) for 5 h. Cell‐covered slides were carefully removed and placed on the stage of the atomic force microscope with needle parameters: elastic coefficient 0.4 N M^−1, sensitivity 65.63 nm V^−1, with otherwise the usual atomic force microscope (Bruker, Billerica, MA) parameters used.

RAW264.7 macrophages = experiment: Cell surface glycocalyx of LPS-stimulated RAW264.7 macrophages (WGA-FITC, atomic force microscopy); type: cell-based, mouse
Method: as §2, §3

ICAM-1 and VCAM-1 [6] = experiment: ICAM-1 and VCAM-1 on TNF-α-stimulated HUVECs by flow cytometry; type: cell-based, human; settings: CV122 50 µM 3 h, TNF-α 20 ng mL−1 1 h
Method: as §1

ICAM-1 and VCAM-1 [7] = experiment: ICAM-1 and VCAM-1 on LPS-stimulated RAW264.7 macrophages by flow cytometry; type: cell-based, mouse; settings: CV122 50 µM 3 h, LPS 5 µg mL−1 1 h
Method: as §1

lung tissue glycocalyx = experiment: Cell surface glycocalyx in lung tissue of LPS-induced septic mice (WGA-FITC, lanthanum nitrate TEM); type: in vivo, mouse
Method: as §2
The endothelial glycocalyx was detected by electron microscopy. Mice were dissected and a needle was inserted into the left ventricle of the heart and perfused with lanthanum aldehyde, a solution consisting of 2% glutaraldehyde, 2% sucrose, 0.1 M sodium […] buffer (pH 7.3), and 2% lanthanum nitrate. Lanthanum was a trivalent cation that binds polysaccharide‐protein complexes with negatively charged glycoprotein parts.^[ [46] ^] The organs were cut into 1 mm^3 pieces and then the samples were fixed in lanthanide aldehyde fixative. […]

CLP-induced septic mice = settings: mouse, in vivo
HUVECs [8] = experiment: Cell survival assay (CCK-8) in HUVECs; type: cell-based, human; settings: 50 to 200 µM

For COC1OC(COS(=O)(=O)O)C(OC2OC(C(=O)O)C(OC3OC(COS(=O)(=O)O)C(OC4OC(C(=O)O)C(OC5OC(COS(=O)(=O)O)C(O)C(O)C5NS(=O)(=O)O)C(OS(=O)(=O)O)C4O)C(OS(=O)(=O)O)C3NS(=O)(=O)O)C(O)C2OS(=O)(=O)O)C(O)C1NS(=O)(=O)O (stereo not shown) [CV122], the “electric shocks needed in the first 100 m” value (LPS-induced septic mice [1]) was “reduced the electric shocks needed in the first 100 m”, the “running distance and time to exhaustion” value (LPS-induced septic mice [1]) was “significantly increased the running distance and extended the time to exhaustion” and the “total electric shocks until exhaustion” value (LPS-induced septic mice [1]) was “obviously increased the total electric shocks until exhaustion”. For the same compound, the “AST, ALT, BUN in serum and MPO in lung tissue” value (LPS-induced septic mice [2]) was “returned to normal upon CV122 treatment, which was more effective than Suramin”, the “kidney damage (H&E)” value (LPS-induced septic mice [2]) was “resolved by CV122” and the “liver damage (H&E)” value (LPS-induced septic mice [2]) was “significantly improved by CV122”. For the same compound, the “lung inflammation by micro-CT imaging” value (LPS-induced septic mice [2]) was “almost completely inhibit this progress”, the “lung pathological damage (H&E)” value (LPS-induced septic mice [2]) was “significantly improved by CV122 administration” and the “lung weight/body weight ratio” value (LPS-induced septic mice [2]) was “significantly decreased”. The “lung wet–dry weight ratio” value (LPS-induced septic mice [2]) was “extremely significantly decreased”, the “spleen pathological changes (H&E)” value (LPS-induced septic mice [2]) was “no pathological changes were observed in spleen tissue” and the “percentage of M1 macrophages in kidneys and spleen” value [3] was “significantly inhibited the percentage of M1 macrophages”. For the same compound, the “percentage of M1 macrophages (F4/80+CD86+) in the lung” value ([3]; **p < 0.01) was “significantly reduced by CV122”, the “CD3+CD4+ T cells and CD3+CD8+ T cells in spleen” value [4] was “recovered by CV122 to close to control levels” and the “CD3−CD19+ B cells in spleen and inguinal lymph nodes” value [4] was “recovered upon treatment with CV122”. The “splenocyte apoptosis (FITC-Annexin V and PI)” value [4] was “significantly reduced apoptosis”, the “glycocalyx integrity by WGA-FITC fluorescence” value (HUVECs [5]) was “rescued glycocalyx integrity” and the “glycocalyx structure / surface roughness by atomic force microscopy” value (HUVECs [5]) was “reduced glycocalyx damage and resulted in a smoother surface”. The “glycocalyx by WGA-FITC fluorescence” value (RAW264.7 macrophages) was “significantly protected the glycocalyx of macrophages”, the “glycocalyx structure by atomic force microscopy” value (RAW264.7 macrophages) was “protected against disruption of the glycocalyx structure” and the “ICAM-1 and VCAM-1 expression” value (ICAM-1 and VCAM-1 [6]) was “reversed after CV122 treatment”. The “ICAM-1 and VCAM-1 expression” value (ICAM-1 and VCAM-1 [7]) was “reversed after CV122 treatment”, the “cell surface glycocalyx in lung tissue by WGA-FITC” value (lung tissue glycocalyx) was “integrity of the glycocalyx was rescued” and the “lanthanum nitrate staining of lung vascular endothelial glycocalyx (TEM)” value (lung tissue glycocalyx) was “significantly restored lanthanum nitrate staining”. The “HPA levels in the lungs” value (CLP-induced septic mice) was “significantly reduced the HPA levels in the lungs”, the “TNF-α, IL-6 and IL-1β in serum and lungs” value (CLP-induced septic mice) was “reduced the level” and the body weight course (CLP-induced septic mice) was “gradually normalized the septic mice”. For the same compound, the “cell surface glycocalyx in lungs (WGA)” value (CLP-induced septic mice) was “protected cell surface glycocalyx”, the “lung pathological damage (HE)” value (CLP-induced septic mice) was “significantly rescued” and the survival rate (CLP-induced septic mice; sc) was 80%. For the same compound, the “effect on survival of HUVECs” value (HUVECs [8]) was “no significant inhibitory effect”.

— PMC11304236, “A Novel Drug Candidate for Sepsis Targeting Heparanase by Inhibiting Cytokine Storm” (Advanced Science, 2024)
